What was measured:
[1] = test system: experimental autoimmune encephalomyelitis (EAE); experiment: Passive EAE by adoptive transfer of treated 2D2 Th17 cells; format: in vivo, mouse
Method: We interrogated whether FGIN-1-27 can influence Th17 dependent pathology in vivo by using a mouse model of passive EAE in which Th17 cells are responsible for driving immuno-pathogenesis. To this end, we sorted naïve CD4^+ T cells (CD4^+Vβ11^+CD62L^hi) from spleen and lymph nodes of “2D2” T cell receptor (TCR) transgenic mice that specifically recognize myelin oligodendrocyte glycoprotein (MOG) peptide and activated them under Th17 polarizing conditions. The cultures were treated with DMSO or FGIN-1-27 during the Th17 differentiation process and cells were reactivated on day 5 for an additional 48 hours and equal numbers of 2D2 Th17 polarized cells treated either with DMSO or FGIN-1-27 were adoptively transferred to recipient mice.
(a) Immunophenotyping of 2D2 TCR transgenic CD4^+ T cells for intracellular IL-17 and IFNγ before adoptive transfer. Cultures were treated with DMSO or FGIN-1-27 during Th17 polarization process. (b) Mean clinical scores of mice following the adoptive transfer of 5 × 10^6 2D2 Th17 cells treated with DMSO or 5 × 10^6 2D2 Th17 cells treated with FGIN-1-27. […] The error bars represent SEM. (c) Mean clinical scores of T cell-deficient (Tcrb^−/−) mice following adoptive transfer of 5 × 10^6 2D2 Th17 cells treated with DMSO or 5 × 10^6 2D2 Th17 cells treated with FGIN-1-27. […] The error bars represent SEM. (d) Enumeration of total mononuclear or 2D2 CD4^+ T cells (CD4^+Vβ11^+) in spleens of mice receiving either DMSO or FGIN-1-27 treated 2D2 T cells. Cells were analyzed at the peak of EAE disease (day 15 post-transfer) by flow cytometry. The error bars represent SD. (e) Enumeration of total CNS mononuclear or CNS-infiltrating 2D2 CD4^+ T cells (CD4^+Vβ11^+) in mice receiving either DMSO or FGIN-1-27 treated 2D2 T cells. Cells were analyzed at the peak of EAE disease (day 15 post-transfer) by flow cytometry. The errors bars represent SD. (f) Intracellular cytokine staining of 2D2 CD4^+ T cells (day 15 post-transfer) for IL-17, IFNγ and GM-CSF from the CNS of mice that received either DMSO or FGIN-1-27 treated cells. The error bars represent SD.
Naïve CD4^+ T cells (CD4^+Vβ11^+CD62L^hi) were sorted from the spleens and lymph nodes of 2D2 TCR transgenic mice and polarized towards Th17 lineage in the presence of irradiated splenocytes (5:1 ratio) and 2.5 μg/ml anti-CD3 (145-2C11, BioXCell), 20 μg/ml anti-IL-4 (11B11, BioXCell), 20 μg/ml anti-IFNγ (XMG1.2, BioXCell), 30 ng/ml mIL-6 and 3 ng/ml hTGF-β1 (Miltenyi Biotec). The following day, cells were treated with either DMSO or FGIN-1-27 (10 μM) and IL-23 (10 ng/ml; R&D Systems) was added after 60 h of activation. On day 5 of culture, cells were reactivated on plates precoated with 2 μg/ml of anti-CD3 and anti-CD28 (PV1, BioXCell) for 48 h, and 5 million cells were adoptively transferred to recipient mice to induce passive-transfer EAE. Classical EAE symptoms were scored daily according to standard criteria: 0, asymptomatic; 1, flaccid tail; 2, hind-limb weakness and impaired righting ability; 3, hind-limb paralysis; 4, front- and hind-limb paralysis; 5, moribund or death.

Th17 cells = experiment: Intracellular metabolites by CE-MS; format: cell-based, mouse
Method: CD4 T cells were differentiated under Th17 polarization conditions and were either treated with DMSO (control) or FGIN-1-27. The error bars represent SD. (a) Genomic browser screenshots of IL-17a, IL-17f and Rorc loci depicting normalized RNA-seq read coverage (RPM) in Th17 cells treated with DMSO or FGIN-1-27 for 24 hours. […] (c) Heat map showing differentially expressed genes encoding glycolytic enzymes in Th17 cells treated with DMSO or FGIN-1-27 for 24 hours (d) Glycolytic metabolites measured in Th17 cells treated with DMSO or FGIN-1-27 for 72 hours. (e) Metabolites in the TCA cycle were measured in Th17 cells treated with DMSO or FGIN-1-27 for 72 hours.
8 million cells treated with either DMSO or FGIN-1-27 were used for extraction of intracellular metabolites. The cells were washed twice with 5% mannitol and treated with methanol to inactivate the enzymes. Next, the cell extract was treated with Milli-Q water containing internal standards (H3304-1002, Human Metabolome Technologies, inc., Tsuruoka, Japan) and left at rest for another 30 s. The extract was obtained and centrifuged at 2,300 ×g and 4 °C for 5 min and then 800 µL of upper aqueous layer was centrifugally filtered through a Millipore 5-kDa cutoff filter at 9,100 ×g and 4 °C for 120 min to remove proteins. The filtrate was centrifugally concentrated and re-suspended in 50 µL of Milli-Q water for CE-MS analysis. Cationic compounds were measured in the positive mode of CE-TOFMS and anionic compounds were measured in the positive and negative modes of CE-MS/MS according to the methods developed by Soga, et al.[39],[40]. Peaks detected by CE-TOFMS and CE-MS/MS were extracted using automatic integration software (MasterHands, Keio University, Tsuruoka, Japan and MassHunter Quantitative Analysis B.04.00, Agilent Technologies, Santa Clara, CA, USA, respectively) in order to obtain peak information including m/z, migration time (MT), and peak area. The peaks were annotated with putative metabolites from the HMT metabolite database based on their MTs in CE and m/z values determined by TOFMS. The tolerance range for the peak annotation was configured at ±0.5 min for MT and ±10 ppm for m/z. In addition, concentrations of metabolites were calculated by normalizing the peak area of each metabolite with respect to the area of the internal standard and by using standard curves, which were obtained by three-point calibrations. Hierarchical cluster analysis (HCA) and principal component analysis (PCA) were performed by Human Metabolome proprietary software, PeakStat and SampleStat, respectively. Detected metabolites were plotted on metabolic pathway maps using VANTED (Visualization and Analysis of Networks containing Experimental Data) software.

## CCCCCCN(CCCCCC)C(=O)Cc1c(-c2ccc(F)cc2)[nH]c2ccccc12 [FGIN-1-27, N, N-di-n-hexyl 2-(4-fluorophenyl) indole-3-acetamide]
[1]; T cell deficient (Tcrb−/−) recipient mice, p = 0.0067
  onset and severity of EAE: delayed onset and reduced severity of EAE
[1]; day 15 post-transfer
  2D2 CD4+ T cells recovered from the CNS: fewer
  2D2 CD4+ T cells recovered from the spleens: higher number
  IFNγ and GM-CSF production of CNS 2D2 CD4+ T cells: intact
  percentage and absolute numbers of IL-17 producing 2D2 CD4+ T cells from the CNS: significant reduction
[1]; pre-transfer, 10 μM during Th17 polarization
  IL-17 producing 2D2 T cells before adoptive transfer: reduced percentage of IL-17 producing cells
[1]; recipient mice, 5 × 10^6 treated 2D2 Th17 cells, p < 0.02
  disease symptoms (mean clinical scores): much milder disease symptoms
Th17 cells; 72 hours
  TCA cycle intermediates (citric acid, cis-aconitic acid, 2-hydroxyglutaric acid, malic acid): additionally reduced
  lactate: unchanged levels
  pyruvate: lower levels
Th17 cells; 72 hours post compound treatment
  amino acids: significant increase
Th17 cells; 72 hours, vs DMSO
  upper glycolytic intermediates (F6P, F1,6P, 3-PG, 2-PG): substantially reduced
